# Read-outs that look alike come from different tables or passages of the source.
# Legend:
# [1] = tested on: Onchocerca gutturosa adult male worms; test: O. gutturosa adult male worm 5-day motility assay; details: for activity against adult O. gutturosa: metabolites of oxfendazole, less potent compared to oxfendazole
# [2] = tested on: Onchocerca gutturosa adult male worms; test: O. gutturosa adult worm MTT/formazan viability assay; details: 120 h
# [3] = tested on: Onchocerca lienalis microfilariae; test: O. lienalis microfilariae 5-day motility assay; details: 120 h
# Brugia pahangi [4] = details: jirds, cited from earlier work
# Brugia pahangi [5] = details: L3, cats, patent phase, necropsy 42 days p.t., ref Denham 1980 (Ref. 5), cited from earlier work
# Brugia pahangi [6] = tested on: Brugia pahangi; set-up: method as in Devaney 1985 (Ref. 8); details: 50L3, balb/c, SC 10 or 50 mg/kg 5 cons. days, 4 days p.i., necropsy 3-4 weeks p.t.; ref Devaney 1985 (Ref. 8); cited from earlier work
# Litomosoides sigmodontis [7] = tested on: Litomosoides sigmodontis; set-up: method as in Reddy 1983 (Ref. 15); details: L3 (mite), Mastomys natalensis, patent phase, necropsy 43 days p.t., ref Reddy 1983 (Ref. 15), cited from earlier work
# Brugia pahangi [8] = tested on: Brugia pahangi; set-up: method as in Reddy 1983 (Ref. 15); details: L3 (SC), Mastomys natalensis, patent phase, necropsy 43 days p.t., ref Reddy 1983 (Ref. 15), cited from earlier work
# Breinlia booliati = tested on: Breinlia booliati; set-up: method as in Mak 1981 (Ref. 7); details: 100L3 (SC), rats, SC 10mg/kg 5 cons. days, patent phase, necropsy 4 weeks p.t.; ref Mak 1981 (Ref. 7); cited from earlier work
# Litomosoides sigmodontis [9] = tested on: Litomosoides sigmodontis; set-up: method as in Shibuya 1979 (Ref. 12); details: cotton rat, ref Shibuya 1979 (Ref. 12), cited from earlier work
# [10] = tested on: L. sigmodontis microfilariae; test: L. sigmodontis microfilariae-injected naïve mice; assay type: in vivo, Litomosoides sigmodontis; details: single intraperitoneal injection 5 mg/kg
# Protocol: To investigate the in vivo efficacy of oxfendazole on microfilariae, microfilariae were isolated from peripheral blood of L. sigmodontis-infected cotton rats according to Chandrashekar et al. (1984) using a sucrose percoll gradient. 100,000 microfilariae were injected into the tail vein of naïve mice as previously described. Microfilariae-injected mice were treated with a commercial formulation of oxfendazole (Dolthene) twice daily with 2 x 12.5 mg/kg per os. As a positive control, additional mice were treated with a single intraperitoneal dose of ivermectin (5 mg/kg) in DMSO/PEG400/H20dest with a ratio of 1:7:2 according to Halliday et al.. Control animals received no treatment.
compound,measurement,setting,value
"Cl.Cl.NCCS[As](SCCN)c1ccc(Nc2nc(N)nc(N)n2)cc1 [Immiticide, melarsomine dihydrochloride]",Motility Reduction (%),"[1]; 1.25 x 10^-5 M, 48 h",100%
same,Motility Reduction (%),"[1]; 1.25 x 10^-5 M, 72 h",100%
same,Motility Reduction (%),"[1]; 1.25 x 10^-5 M, 96 h",100%
same,Motility Reduction (%),"[1]; 1.25 x 10^-5 M, 120 h",100%
same,Motility Reduction (%),"[1]; 1.9 x 10^-7 M, 24 h",4%
same,Motility Reduction (%),"[1]; 1.9 x 10^-7 M, 48 h",9%
same,Motility Reduction (%),"[1]; 1.9 x 10^-7 M, 72 h",33%
same,Motility Reduction (%),"[1]; 1.9 x 10^-7 M, 96 h",44%
same,Motility Reduction (%),"[1]; 1.9 x 10^-7 M, 120 h",44%
same,Motility Reduction (%),"[1]; 3.1 x 10^-6 M, 48 h",100%
same,Motility Reduction (%),"[1]; 3.1 x 10^-6 M, 72 h",100%
same,Motility Reduction (%),"[1]; 3.1 x 10^-6 M, 96 h",100%
same,Motility Reduction (%),"[1]; 3.1 x 10^-6 M, 120 h",100%
same,Motility Reduction (%),"[1]; 7.8 x 10^-7 M, 24 h",49%
same,Motility Reduction (%),"[1]; 7.8 x 10^-7 M, 48 h",74%
same,Motility Reduction (%),"[1]; 7.8 x 10^-7 M, 72 h",93%
same,Motility Reduction (%),"[1]; 7.8 x 10^-7 M, 120 h",100%
same,MTT Reduction (%),[2]; 1.25 x 10^-5 M,91%
same,MTT Reduction (%),[2]; 1.9 x 10^-7 M,51%
same,MTT Reduction (%),[2]; 3.1 x 10^-6 M,94%
same,MTT Reduction (%),[2]; 7.8 x 10^-7 M,79%
same,effect on microfilariae motility,[3]; concentrations equal or above 3.1·10^−6 M,completely inhibited microfilariae motility
CCCSc1ccc2nc(NC(=O)OC)[nH]c2c1 [albendazole],Motility Reduction (%),"[1]; 1.25 x 10^-5 M, 24 h",10%
same,Motility Reduction (%),"[1]; 1.25 x 10^-5 M, 48 h",12%
same,Motility Reduction (%),"[1]; 1.25 x 10^-5 M, 72 h",27%
same,Motility Reduction (%),"[1]; 1.25 x 10^-5 M, 96 h",38%
same,Motility Reduction (%),"[1]; 1.25 x 10^-5 M, 120 h",40%
same,Motility Reduction (%),"[1]; 3.1 x 10^-6 M, 24 h",10%
same,Motility Reduction (%),"[1]; 3.1 x 10^-6 M, 48 h",5%
same,Motility Reduction (%),"[1]; 3.1 x 10^-6 M, 72 h",16%
same,Motility Reduction (%),"[1]; 3.1 x 10^-6 M, 96 h",26%
same,Motility Reduction (%),"[1]; 3.1 x 10^-6 M, 120 h",40%
same,Motility Reduction (%),"[1]; 5.0 x 10^-5 M, 24 h",10%
same,Motility Reduction (%),"[1]; 5.0 x 10^-5 M, 48 h",12%
same,Motility Reduction (%),"[1]; 5.0 x 10^-5 M, 72 h",29%
same,Motility Reduction (%),"[1]; 5.0 x 10^-5 M, 96 h",40%
same,Motility Reduction (%),"[1]; 5.0 x 10^-5 M, 120 h",47%
same,Motility Reduction (%),"[1]; 7.8 x 10^-7 M, 24 h",10%
same,Motility Reduction (%),"[1]; 7.8 x 10^-7 M, 48 h",9%
same,Motility Reduction (%),"[1]; 7.8 x 10^-7 M, 72 h",13%
same,Motility Reduction (%),"[1]; 7.8 x 10^-7 M, 96 h",33%
same,Motility Reduction (%),"[1]; 7.8 x 10^-7 M, 120 h",33%
same,MTT Reduction (%),[2]; 1.25 x 10^-5 M,28%
same,MTT Reduction (%),[2]; 3.1 x 10^-6 M,19%
same,MTT Reduction (%),[2]; 5.0 x 10^-5 M,47%
same,MTT Reduction (%),[2]; 7.8 x 10^-7 M,18%
same,activity against microfilariae compared to oxfendazole,[3],even less active
same,Reduction of worm burden,"Brugia pahangi [4]; 15Ad (IP), SC 50mg/kg 5 cons. days, necropsy 4-5 weeks p.t., ref Denham 1980 (Ref. 5)",100%
same,Reduction of worm burden,"Brugia pahangi [4]; 15Ad (IP), SC 25-12.5mg/kg 5 cons. days, necropsy 4-5 weeks p.t., ref Denham 1980 (Ref. 5)",80-90%
same,Reduction of worm burden,"Brugia pahangi [4]; 15Ad (IP), SC 50-25mg/kg 5 cons. days, 4 days p.i., necropsy 5 weeks p.t., ref Surin 1990 (Ref. 11)",100%
same,Reduction of worm burden,"Brugia pahangi [4]; 15Ad (IP), SC <6,25mg/kg 5 cons. days, necropsy 4-5 weeks p.t., ref Denham 1980 (Ref. 5)",<30%
same,Reduction of worm burden,"Brugia pahangi [4]; 50L3 (IP), SC 50-25mg/kg 5 cons. days, 70 days p.i., necropsy 5 weeks p.t., ref Surin 1990 (Ref. 11)",90%
same,Reduction of worm burden,Brugia pahangi [5]; SC 25mg/kg 5 cons. days,50%
same,Reduction of worm burden,Brugia pahangi [5]; SC 50mg/kg 5 cons. days,100%
same,Reduction of worm burden,Brugia pahangi [5]; SC 100mg/kg 5 cons. days,100%
same,Reduction of worm burden,Brugia pahangi [6],100%
same,Reduction of worm burden,Litomosoides sigmodontis [7]; SC 100mg/kg 5 cons. days,100%
same,Reduction of worm burden,Litomosoides sigmodontis [7]; per os 150mg/kg 5 cons. days,0%
same,Reduction of worm burden,Brugia pahangi [8]; SC 100mg/kg 5 cons. days,100%
same,Reduction of worm burden,Brugia pahangi [8]; per os 150mg/kg 5 cons. days,50%
COC(=O)Nc1nc2ccc(S(=O)(=O)c3ccccc3)cc2[nH]1 [fenbendazole sulfone],activity against adult O. gutturosa,[1],active
COC(=O)Nc1nc2ccc(Sc3ccccc3)cc2[nH]1 [fenbendazole],activity against adult O. gutturosa,[1],active
"COC(=O)Nc1nc2ccc(C(=O)c3ccccc3)cc2[nH]1 [meb, mebendazole]",Reduction of worm burden,"Brugia pahangi [4]; 15Ad (IP), SC 25-12,5mg/kg 5 cons. days, 4 days p.i., necropsy 5 weeks p.t., ref Surin 1990 (Ref. 11)",100%
same,Reduction of worm burden,"Brugia pahangi [4]; 50L3 (IP), SC 25mg/kg 5 cons. days, 70 days p.i., necropsy 5 weeks p.t., ref Surin 1990 (Ref. 11)",97%
same,Reduction of worm burden,"Brugia pahangi [4]; 50L3 (IP), SC 12,5mg/kg 5 cons. days, 70 days p.i., necropsy 5 weeks p.t., ref Surin 1990 (Ref. 11)",78.5%
same,Reduction of worm burden,"Brugia pahangi [4]; 100L3 (IP), SC 50mg/kg 5 cons.days, 3 months p.i., necropsy 15 days p.t., ref Denham 1978 (Ref. 3)",70%
same,Reduction of worm burden,"Brugia pahangi [4]; 100L3 (IP), SC 50mg/kg 5 cons.days, 3 months p.i., necropsy 20 days p.t., ref Denham 1978 (Ref. 3)",100%
same,Reduction of worm burden,"Brugia pahangi [4]; 100L3 (IP), SC 50mg/kg 5 cons.days, 3 months p.i., necropsy 30 days p.t., ref Denham 1978 (Ref. 3)",100%
same,Reduction of worm burden,Breinlia booliati,83%
same,Reduction of worm burden,"Litomosoides sigmodontis [9]; IP 1mg/kg 3 cons.days, patent phase, necropsy 4 weeks p.t.",50%
same,Reduction of worm burden,"Litomosoides sigmodontis [9]; IP 10mg/kg 3 cons.days, patent phase, necropsy 4 weeks p.t.",100%
same,Reduction of worm burden,"Litomosoides sigmodontis [9]; IP 100mg/kg x1, patent phase, necropsy 4 weeks p.t.",100%
same,Reduction of worm burden,"Litomosoides sigmodontis [9]; IT 0.1mg/kg 3 cons.days, patent phase, necropsy 5 weeks p.t.",0%
same,Reduction of worm burden,"Litomosoides sigmodontis [9]; IT 1mg/kg 3 cons.days, patent phase, necropsy 5 weeks p.t.",100%
same,Reduction of worm burden,"Litomosoides sigmodontis [9]; IT 10mg/kg 3 cons.days, patent phase, necropsy 3 weeks p.t.",20%
same,Reduction of worm burden,"Litomosoides sigmodontis [9]; IT 10mg/kg 3 cons.days, patent phase, necropsy 5 weeks p.t.",100%
same,Reduction of worm burden,"Litomosoides sigmodontis [9]; IT 10mg/kg 4 cons.days, patent phase, necropsy 4 weeks p.t.",0%
same,Reduction of worm burden,"Litomosoides sigmodontis [9]; IT 25mg/kg x1, patent phase, necropsy 5 weeks p.t.",75%
same,Reduction of worm burden,"Litomosoides sigmodontis [9]; IT 100mg/kg x1, patent phase, necropsy 5 weeks p.t.",85%
same,Reduction of worm burden,Litomosoides sigmodontis [7]; SC 100mg/kg 5 cons. days,100%
same,Reduction of worm burden,Litomosoides sigmodontis [7]; per os 150mg/kg 5 cons. days,70%
same,Reduction of worm burden,Brugia pahangi [8]; SC 100mg/kg 5 cons. days,100%
same,Reduction of worm burden,Brugia pahangi [8]; per os 150mg/kg 5 cons. days,0%
ivermectin,microfilaremia,[10]; by 6 h after treatment,statistically significant reduction of microfilaremia
same,microfilaremia,[10]; from day four after treatment until end of experiment,microfilariae negative

# From paper PMC7365463, “Oxfendazole mediates macrofilaricidal efficacy against the filarial nematode Litomosoides sigmodontis in vivo and inhibits Onchocerca spec. motility in vitro” (PLoS Neglected Tropical Diseases, 2020)
